The values that follow come from patent US11066393B2, “Indolin-2-one derivatives” (Hoffmann-La Roche Inc., priority 2015, dated 2021).

In the experiment the target is T1, mouse ENT-1 transporter (Mus musculus, UniProt Q9JIM1).
T1 construct: expressed in transfected cells
T1 sequence (Q9JIM1 1-460): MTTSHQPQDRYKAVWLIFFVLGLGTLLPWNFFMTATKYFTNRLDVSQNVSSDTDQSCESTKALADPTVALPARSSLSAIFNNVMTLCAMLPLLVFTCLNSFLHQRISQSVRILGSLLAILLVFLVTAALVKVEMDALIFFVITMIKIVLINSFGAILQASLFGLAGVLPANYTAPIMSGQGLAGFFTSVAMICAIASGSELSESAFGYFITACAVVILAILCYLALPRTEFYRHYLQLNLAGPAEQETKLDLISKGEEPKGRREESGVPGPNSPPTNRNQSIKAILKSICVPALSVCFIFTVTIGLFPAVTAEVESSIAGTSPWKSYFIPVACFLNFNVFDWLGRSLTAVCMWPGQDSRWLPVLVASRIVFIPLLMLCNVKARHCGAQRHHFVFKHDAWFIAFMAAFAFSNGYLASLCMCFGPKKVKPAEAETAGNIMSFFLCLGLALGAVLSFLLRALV
As to the kind of experiment: Adenosine transport activity (ENT1, [3H]-adenosine uptake). In kind it is cell-based. Particulars: stable cells expressing mouse ENT-1; [2,8-3H]-adenosine 6 nM, 20 min. As to the method: To measure adenosine transport activity of ENT-1 mammalian cells, stable cells expressing the mouse ENT-1 transporter were plated on day 1 in 96-well culture plates at the density of 60,000 cells/well, in complete DMEM/F12 medium supplemented with glutamax, 10% FBS and 10 μg/ml puromycin. On day 2, the medium was aspirated and the cells were washed twice with uptake buffer (10 mM Hepes-Tris, pH 7.4 containing 150 mM NaCl, 1 mM CaCl2, 2.5 mM KCl, 2.5 mM MgSO4, 10 mM D-glucose) (UB). For inhibition experiments, cells were then incubated at RT with various concentrations of compounds with 1% DMSO final. Non-specific uptake was defined in the presence of 10 μM S-(4-Nitrobenzyl)-6-thioinosine (NBTI, Sigma Cat #N2255).
A solution containing [2,8-^3H]-adenosine 6 nM (40 Ci/mmol, American Radiolabeled chemicals Inc, Cat #ART 0287A) was then immediately added to the wells. The plates were then incubated for 20 min with gentle shaking and the reaction was stopped by aspiration of the mixture and washing (three times) with ice-cold UB. The cells were lysed by the addition of scintillation liquid, shaken 3 hours and the radioactivity in the cells was estimated using a microplates scintillation counter (TopCount NXT, Packard).

For the compound “5-(3,3-Dimethyl-6-(2-methylpyrimidin-5-yl)-2-oxoindolin-1-yl)-N,2-dimethylnicotinamide [Example 41]”, the IC50 came to 413 nM.

In the case of `Cc1ncc(-c2ccc3c(c2)N(c2cncc(C(=O)N(C)C)n2)C(=O)C3(C)C)cn1` [Example 1, 6-(3,3-Dimethyl-6-(2-methylpyrimidin-5-yl)-2-oxoindolin-1-yl)-N,N-dimethylpyrazine-2-carboxamide], half-maximal inhibition (IC50) was put at 19.5 nM. The same measure for `Cc1ncc(-c2ccc3c(c2)N(c2cncc(C(=O)N4CCC4)n2)C(=O)C3(C)C)cn1` [Example 3, 1-(6-(Azetidine-1-carbonyl)pyrazin-2-yl)-3,3-dimethyl-6-(2-methylpyrimidin-5-yl)indolin-2-one]: 31.4 nM. `Cc1ncc(-c2ccc3c(c2)N(c2cncc(C(=O)N(C)CC(F)(F)F)n2)C(=O)C3(C)C)cn1` [Example 4, 6-(3,3-Dimethyl-6-(2-methylpyrimidin-5-yl)-2-oxoindolin-1-yl)-N-methyl-N-(2,2,2-trifluoroethyl)pyrazine-2-carboxamide] returned a concentration for half-maximal inhibition (IC50) of 513 nM. Take `COCCN(C)C(=O)c1cncc(N2C(=O)C(C)(C)c3ccc(-c4cnc(C)nc4)cc32)n1` [Example 5, 6-(3,3-Dimethyl-6-(2-methylpyrimidin-5-yl)-2-oxoindolin-1-yl)-N-(2-methoxyethyl)-N-methylpyrazine-2-carboxamide]: half-maximal inhibition (IC50) was put at 382 nM.

`Cc1ncc(-c2ccc3c(c2)N(c2cncc(C(=O)NCCO)n2)C(=O)C3(C)C)cn1` [Example 6, 6-(3,3-Dimethyl-6-(2-methylpyrimidin-5-yl)-2-oxoindolin-1-yl)-N-(2-hydroxyethyl)pyrazine-2-carboxamide] displayed an IC50 of 30 nM. The same measure for `Cc1ncc(-c2ccc3c(c2)N(c2cncc(C(=O)NCC(F)(F)F)n2)C(=O)C3(C)C)cn1` [Example 8, 6-(3,3-Dimethyl-6-(2-methylpyrimidin-5-yl)-2-oxoindolin-1-yl)-N-(2,2,2-trifluoroethyl)pyrazine-2-carboxamide]: 451 nM; for `Cc1ncc(-c2ccc3c(c2)N(c2cncc(C(=O)NC(C)C)n2)C(=O)C3(C)C)cn1` [Example 9, 6-(3,3-Dimethyl-6-(2-methylpyrimidin-5-yl)-2-oxoindolin-1-yl)-N-isopropylpyrazine-2-carboxamide]: 196 nM. The same measure for `Cc1ncc(-c2ccc3c(c2)N(c2cncc(C(N)=O)n2)C(=O)C3(C)C)cn1` [Example 10, 6-(3,3-Dimethyl-6-(2-methylpyrimidin-5-yl)-2-oxoindolin-1-yl)pyrazine-2-carboxamide]: 197 nM; for `Cc1ncc(-c2ccc3c(c2)N(c2cnc(C(=O)N(C)C(C)(C)C)cn2)C(=O)C3(C)C)cn1` [Example 12, N-(tert-Butyl)-5-(3,3-dimethyl-6-(2-methylpyrimidin-5-yl)-2-oxoindolin-1-yl)-N-methylpyrazine-2-carboxamide]: 927 nM. `Cc1ncc(-c2ccc3c(c2)N(c2cnc(C(=O)N4CCC4)cn2)C(=O)C3(C)C)cn1` [Example 13, 1-(5-(Azetidine-1-carbonyl)pyrazin-2-yl)-3,3-dimethyl-6-(2-methylpyrimidin-5-yl)indolin-2-one] came in with an IC50 of 767 nM. In turn, `COCCN(C)C(=O)c1cnc(N2C(=O)C(C)(C)c3ccc(-c4cnc(C)nc4)cc32)cn1` [Example 14, 5-(3,3-Dimethyl-6-(2-methylpyrimidin-5-yl)-2-oxoindolin-1-yl)-N-(2-methoxyethyl)-N-methylpyrazine-2-carboxamide] showed a half-maximal inhibitory concentration (IC50) of 186 nM. `Cc1ncc(-c2ccc3c(c2)N(c2cnc(C(N)=O)cn2)C(=O)C3(C)C)cn1` [Example 15, 5-(3,3-Dimethyl-6-(2-methylpyrimidin-5-yl)-2-oxoindolin-1-yl)pyrazine-2-carboxamide] registered an IC50 of 391 nM. For `Cc1ncc(-c2ccc3c(c2)N(c2nccc(C(=O)N(C)C)n2)C(=O)C3(C)C)cn1` [Example 17, 2-(3,3-Dimethyl-6-(2-methylpyrimidin-5-yl)-2-oxoindolin-1-yl)-N,N-dimethylpyrimidine-4-carboxamide], inhibition was half-maximal at 537 nM (IC50). `CNC(=O)c1nc(N2C(=O)C(C)(C)c3ccc(-c4cnc(C)nc4)cc32)ncc1C` [Example 18, 2-(3,3-Dimethyl-6-(2-methylpyrimidin-5-yl)-2-oxoindolin-1-yl)-N,5-dimethylpyrimidine-4-carboxamide] gave an IC50 of 78.4 nM. As for `Cc1ncc(-c2ccc3c(c2)N(c2ccnc(C(=O)N(C)C)n2)C(=O)C3(C)C)cn1` [Example 19, 4-(3,3-Dimethyl-6-(2-methylpyrimidin-5-yl)-2-oxoindolin-1-yl)-N,N-dimethylpyrimidine-2-carboxamide], the IC50 is 725 nM. In the case of `CNC(=O)c1nccc(N2C(=O)C(C)(C)c3ccc(-c4cnc(C)nc4)cc32)n1` [Example 20, 4-(3,3-Dimethyl-6-(2-methylpyrimidin-5-yl)-2-oxoindolin-1-yl)-N-methylpyrimidine-2-carboxamide], it took 120 nM to reach half-maximal inhibition (IC50). Then `Cc1ncc(-c2ccc3c(c2)N(c2ccc(C(=O)N(C)C)nn2)C(=O)C3(C)C)cn1` [Example 21, 6-(3,3-Dimethyl-6-(2-methylpyrimidin-5-yl)-2-oxoindolin-1-yl)-N,N-dimethylpyridazine-3-carboxamide], with 964 nM; and `Cc1ncc(-c2ccc3c(c2)N(c2cccc(C(=O)N(C)C)n2)C(=O)C3(C)C)cn1` [Example 23, 6-(3,3-Dimethyl-6-(2-methylpyrimidin-5-yl)-2-oxoindolin-1-yl)-N,N-dimethylpicolinamide], with 374 nM. Regarding `Cc1ncc(-c2ccc3c(c2)N(c2cccc(C(=O)NCC4CC4)n2)C(=O)C3(C)C)cn1` [Example 25, N-(Cyclopropylmethyl)-6-(3,3-dimethyl-6-(2-methylpyrimidin-5-yl)-2-oxoindolin-1-yl)picolinamide], the IC50 turned out to be 49.9 nM. In turn, `Cc1ncc(-c2ccc3c(c2)N(c2cccc(C(N)=O)n2)C(=O)C3(C)C)cn1` [Example 26, 6-(3,3-Dimethyl-6-(2-methylpyrimidin-5-yl)-2-oxoindolin-1-yl)picolinamide] showed an IC50 of 253 nM. Then `CNC(=O)c1nc(N2C(=O)C(C)(C)c3ccc(-c4cnc(C)nc4)cc32)ccc1C` [Example 27, 6-(3,3-Dimethyl-6-(2-methylpyrimidin-5-yl)-2-oxoindolin-1-yl)-N,3-dimethylpicolinamide], with 14.8 nM; and `Cc1ncc(-c2ccc3c(c2)N(c2ccc(C)c(C(=O)N(C)C)n2)C(=O)C3(C)C)cn1` [Example 28, 6-(3,3-Dimethyl-6-(2-methylpyrimidin-5-yl)-2-oxoindolin-1-yl)-N,N,3-trimethylpicolinamide], with 351 nM; and `Cc1ncc(-c2ccc3c(c2)N(c2cncc(C(=O)N(C)C)c2)C(=O)C3(C)C)cn1` [Example 30, 5-(3,3-Dimethyl-6-(2-methylpyrimidin-5-yl)-2-oxoindolin-1-yl)-N,N-dimethylnicotinamide], with 608 nM.

`Cc1ncc(-c2ccc3c(c2)N(c2cncc(C(=O)N4CCC4)c2)C(=O)C3(C)C)cn1` [Example 31, 1-(5-(Azetidine-1-carbonyl)pyridin-3-yl)-3,3-dimethyl-6-(2-methylpyrimidin-5-yl)indolin-2-one] yielded an IC50 of 202 nM. The same measure for `Cc1ncc(-c2ccc3c(c2)N(c2cncc(C(=O)NCC(F)(F)F)c2)C(=O)C3(C)C)cn1` [Example 32, 5-(3,3-Dimethyl-6-(2-methylpyrimidin-5-yl)-2-oxoindolin-1-yl)-N-(2,2,2-trifluoroethyl)nicotinamide]: 477 nM; for `CNC(=O)c1cncc(N2C(=O)C(C)(C)c3ccc(-c4cnc(C)nc4)cc32)c1` [Example 33, 5-(3,3-Dimethyl-6-(2-methylpyrimidin-5-yl)-2-oxoindolin-1-yl)-N-methylnicotinamide]: 559 nM; for `CNC(=O)c1cc(N2C(=O)C(C)(C)c3ccc(-c4cnc(C)nc4)cc32)cc(C)n1` [Example 34, 4-(3,3-Dimethyl-6-(2-methylpyrimidin-5-yl)-2-oxoindolin-1-yl)-N,6-dimethylpicolinamide]: 1140 nM. The same measure for `CNC(=O)c1cc(N2C(=O)C(C)(C)c3ccc(-c4cnc(C)nc4)cc32)ccn1` [Example 35, 4-(3,3-Dimethyl-6-(2-methylpyrimidin-5-yl)-2-oxoindolin-1-yl)-N-methylpicolinamide]: 534 nM; for `Cc1ncc(-c2ccc3c(c2)N(c2cnc4c(c2)C(=O)N(C)C4)C(=O)C3(C)C)cn1` [Example 36, 3-(3,3-Dimethyl-6-(2-methylpyrimidin-5-yl)-2-oxoindolin-1-yl)-6-methyl-6,7-dihydro-5H-pyrrolo[3,4-b]pyridin-5-one]: 637 nM.

The term IC50 denotes the point on the concentration scale where inhibition reaches its midpoint.
